Laboratory results from patent US20250205158A1, “BIODEGRADABLE LIPIDS AND FORMULATIONS FOR DELIVERY OF MRNA” (Massachusetts Institute of Technology, priority 2023, published 2025).

What was measured:
[1] = Ethanol solubility of ionizable lipids; format: physicochemical
Excerpt: AMG lipids for enhanced mRNA delivery and improved tolerability.

mice = details: FLuc expression in liver and spleen 6 hours after IM injection
Protocol: Evaluation of the LNPs via intramuscular injection. The in vivo potency of the ionizable lipids was screened through intramuscular injection of LNPs loaded with mRNA encoding firefly luciferase protein. These LNPs were formulated with a molar composition of (35:16:46.5:2.5) using one of the synthesized ionizable lipids, DOPE as a helper lipid, cholesterol, and DMPE-PEG respectively. mRNA-loaded LNPs were intramuscularly administered in mice at a dose of 1 μg, and expression of luciferase protein was monitored at 6 hours via IVIS bioluminescent imaging (FIG. 3). […] Without wishing to be bound by theory, increased levels of protein expression may enhance the response to vaccination.
In Vitro and In Vivo Screening of AMG Lipid Library. Following synthesis, the mRNA delivery efficacy of the AMG lipids was evaluated through both in vitro and in vivo screens. To screen the first generation of AMG lipids (FIGS. 11B and 11C), firefly luciferase (FLuc) mRNA was encapsulated into LNPs using a previously reported formulation containing ionizable lipid, 1,2-dioleoyl-sn-glycero-3-phosphoethanolamine (DOPE), cholesterol, and 1,2-dimyristoyl-rac-glycero-3-methoxypolyethylene glycol-2000 (DMG-PEG).^19 C2C12 myoblast cells were treated with these LNPs and FLuc expression was evaluated at 24 hrs. (FIG. 16). […] Each of these batches was then injected IM into the quadriceps of mice, and expression was characterized via IVIS imaging (Screen 1, FIG. 11E).
AMG lipids for enhanced mRNA delivery and improved tolerability. A rational design approach was used to further vary the ionizable lipid structure to enhance the mRNA delivery and immunogenicity. […] The lipid tail structure was varied to promote efficient LNP self-assembly while simultaneously promoting endosomal membrane disruption.^18 Monounsaturated (G41-G44) or fully saturated (GC12-GC18) lipid tails were developed. […] Without wishing to be bound by any particular theory, tail length may impact membrane fusion and endosomal escape.^10,11
Next, the headgroup was further modified to further improve delivery. Headgroups play a multifunctional role including enhancing LNP-mRNA interactions, promoting membrane-LNP fusion and endosomal escape which all contribute to mRNA delivery.^23 A series of similar aza-crown ethers were used to further investigate structure-activity relationship and enhance mRNA delivery. These headgroups featured between three and eight nitrogens linked by varying length of methylene chains. Each of these headgroups were reacted with tail G41 to synthesize a next generation of AMG lipids, which were then formulated with FLuc mRNA and evaluated for mRNA delivery following IM administration in mice (FIG. 12B).

[2] = test system: influenza A/Tasmania/503/2020 virus; test: Hemagglutination inhibition (HAI) assay, neutralizing antibody titers after HA mRNA vaccination; format: in vivo, BALB/cJ mice; details: female BALB/cJ mice, dose-response vaccination
Protocol: To test this, a dose-response vaccination experiment ranging from […] was performed in female BALB/cJ mice. Neutralizing antibody titers were evaluated using the hemagglutination inhibition (HAI) assay. HAI titers are strongly correlated with vaccine protection and the assay is an FDA approved method for testing influenza vaccine efficacy^38,39 In agreement with the binding antibody titers, higher neutralizing […] were measured across all three tested doses: SM-102 only gave detectable neutralizing immunity at a 1 μg dose, while AMG1541 gave neutralizing immunity with as little was 10 ng of mRNA (FIG. 13H). Not only was AMG1541 able to generate neutralizing immunity at a very low dose, the binding and neutralizing antibody titers were equivalent in mice vaccinated with AMG1541 at a […] as those with SM-102 at a […] (FIG. 13H).
HAI Assay. HAI assays were performed by IBT bioservices. Viral titers were standardized by defining one HA unit as the amount of inactivated influenza A/Tasmania/503/2020 virus required to completely hemagglutinate an equal volume of 1% turkey red blood cells (TRBCs) (Lampire). Serum was heat inactivated at 56° C. then receptor destroying enzyme (RDE) (DENKA) was added to the serum and incubated at 37° C. for 20 hrs. RDE was then deactivated at 56° C. for 60 mins. Serum samples were then serially diluted in DPBS and 25 μL of diluted serum was added to a 96-well V bottom plate. Subsequently, four HA units of inactivated virus in 25 μL of DPBS were added to the diluted serum and incubated for 30 mins. at RT. 50 μL of a 1% (4×10^7 cells/mL) solution of turkey red blood cells (Lampire) was then added to the serum and virus mixture.

[3] = in vivo; cited from earlier work

SMILES | ethanol solubility [1] | fold higher mRNA transfection in the liver and spleen compared to AMG1541 (mice) [fold] | dose giving detectable neutralizing immunity [2] [µg] | time SM-102 remained detectable at the injection site [3] | time SM-102 remained detectable in the liver and spleen [3]
CCCCCCCCCCCCCC(=O)OCC(O)CN1CCCN(CC(O)COC(=O)CCCCCCCCCCCCC)CCN(CC(O)COC(=O)CCCCCCCCCCCCC)CCCN(CC(O)COC(=O)CCCCCCCCCCCCC)CC1 (mixture of isomers) [AMG10C14] | poor ethanol solubility | – | – | – | –
CCCCCCCCCCCOC(=O)CCCCCN(CCO)CCCCCCCC(=O)OC(CCCCCCCC)CCCCCCCC [SM-102, reference compound] | – | ~100 | 1 | at least 48 hours | at least 10 hours
CCCCCCCCCCCCCCCCCC(=O)OCC(O)CN1CCCN(CC(O)COC(=O)CCCCCCCCCCCCCCCCC)CCN(CC(O)COC(=O)CCCCCCCCCCCCCCCCC)CCCN(CC(O)COC(=O)CCCCCCCCCCCCCCCCC)CC1 (mixture of isomers) [AMG10C18] | poor ethanol solubility | – | – | – | –
CCCCCCCCCCCCCCCC(=O)OCC(O)CN1CCCN(CC(O)COC(=O)CCCCCCCCCCCCCCC)CCN(CC(O)COC(=O)CCCCCCCCCCCCCCC)CCCN(CC(O)COC(=O)CCCCCCCCCCCCCCC)CC1 (mixture of isomers) [AMG10C16] | poor ethanol solubility | – | – | – | –
